Measurements reported in US12377071B2, “Methods of treating conditions related to the S1P1 receptor” (Arena Pharmaceuticals, Inc., priority 2015, dated 2025).

Assays:
subjects = test: Phase 1 single dose study: safety and tolerability
Protocol: A phase 1 study with Compound 1 was conducted with single dosing at 0.1 mg, 0.35 mg, 1 mg, 3 mg, and 5 mg. Compound 1 was administered as the L-arginine salt.

male Sprague-Dawley rats = conditions: cited from earlier work
[1] = test system: peripheral blood lymphocyte (PBL) counts; test: Phase 1 single dose study: peripheral blood lymphocyte counts; type: in vivo, human
Protocol: Compound 1 was administered as the L-arginine salt.

## O=C(O)C[C@H]1CCc2c1[nH]c1ccc(OCc3ccc(C4CCCC4)c(C(F)(F)F)c3)cc21 [Compound 1, (R)-2-(7-(4-cyclopentyl-3-(trifluoromethyl)benzyloxy)-1,2,3,4-tetrahydrocyclopenta [b]indol-3-yl)acetic acid]
subjects; in vivo
  Vital signs, ECGs, pulmonary function tests, ophthalmoscopy, clinical laboratory tests: no other clinically significant safety issues
subjects; single dosing
  Maximum tolerated dose: 3 mg
subjects; single dosing 0.1 to 5 mg
  Deaths or serious adverse events: no deaths or serious adverse events
Male Sprague-Dawley rats
  Bradycardia: no or substantially no bradycardia
[1]; single dose
  Persistence of PBL nadir: 24 h
  Time after dosing by which total PBL counts were reduced: 2 to 4 h
  Time of PBL nadir: ≤ 8 h
[1]; single dose 3 mg
  PBL counts reduced by: ~40%
[1]; single dose 5 mg
  PBL counts reduced by: ~55%
[1]; single dose, after the nadir
  Recovery of PBL counts to baseline: 4 days
[1]; single dosing at 3 and 5 mg
  Absolute number of peripheral blood B cells, T cells, NK cells, and all T cell subsets except TEM cells: dose responsive decline
